We go through 20 molecules from patent US20230172205A1 (priority 2020, published 2023).

Assay [1] relates to Phakopsora pachyrhizi, strain with amino acid substitution F129L in the mitochondrial cytochrome b protein. The assay is described as follows: Protective control of soybean rust on soybeans (PHAKPA P2). The conditions noted are these: for PHAKPA (F129L) Disease level (%), P2 at 16 ppm: Table C4, untreated >90. The assay is classed as in vivo.
For assay [2] the test system is unchanged. The assay is described as follows: Protective control of soybean rust on soybeans (PHAKPA P6). The assay is classed as in vivo.
Setting [3] is: protective P2, 4 ppm, soybean rust F129L strain.
Setting [4] is: protective P2, 16 ppm, soybean rust F129L strain.
The mark [5] stands for this setting: Table C4, 16 ppm, untreated >85.
Where [6] appears, read: protective P6, 4 ppm, soybean rust F129L strain.
Where [7] appears, read: protective P6, 16 ppm, soybean rust F129L strain.
[8] abbreviates: Table 1, protective P2, 4 ppm, F129L strain.
The mark [9] stands for this setting: Table 1, protective P2, 16 ppm, F129L strain.
[10] abbreviates: Table 1, protective P6, 4 ppm, F129L strain.
Setting [11] is: Table 1, protective P6, 16 ppm, F129L strain.

`CO/N=C(/C(=O)OC)c1cccc(C)c1CO/N=C(\C)c1ccccc1F` [Ex. 1, Methyl (2E)-2-[2-[[(E)-3-(2-fluorophenyl)ethylideneamino]oxymethyl]-3-methyl-phenyl]-2-methoxyimino-acetate]: in assay [1] (16 ppm), the “PHAKPA (F129L) Disease level (%), P2 at 16 ppm” value (“PHAKPA … (%), P2 at 16 ppm” for short) amounted to 28%. Also, the “% PHAKPA (F129L) Disease level, P2 at 4 ppm” value (from here on “% PHAKPA … P2 at 4 ppm”) in assay [1] (setting [3]) is 80%. Besides, the “% PHAKPA (F129L) Disease level, P2 at 16 ppm” value (shortened to “% PHAKPA … P2 at 16 ppm”) in assay [1] (setting [4]) was 27%. In addition, in assay [2] (setting [5]), the “PHAKPA (F129L) Disease level (%), P6 at 16 ppm” value (shortened to “PHAKPA … (%), P6 at 16 ppm”) amounted to 47%. The “% PHAKPA (F129L) Disease level, P6 at 4 ppm” value (from here on “% PHAKPA … P6 at 4 ppm”) in assay [2] (setting [6]) amounted to 90%. Also, the “% PHAKPA (F129L) Disease level, P6 at 16 ppm” value (shortened to “% PHAKPA … P6 at 16 ppm”) in assay [2] (setting [7]) stood at 56%.

On to `CO/N=C(/C(=O)OC)c1cccc(C)c1CO/N=C(\C)c1cccc(OC(F)(F)F)c1` [Ex. 28], for which the “PHAKPA … (%), P2 at 16 ppm” value in assay [1] (16 ppm) was 30%. Besides, in assay [1] (setting [4]), the “% PHAKPA … P2 at 16 ppm” value amounted to 0%. Further, the “PHAKPA … (%), P6 at 16 ppm” value in assay [2] (setting [5]) is on record as 18%. Also, the “% PHAKPA … P6 at 16 ppm” value in assay [2] (setting [7]) came to 0%.

In the case of `CO/N=C(/C(=O)OC)c1cccc(C)c1CO/N=C(\C)c1cccc(C)c1` [Ex. 76], the “PHAKPA … (%), P6 at 16 ppm” value was 4% in assay [2] (P6 at 16 ppm, untreated 75%) and 0% in assay [2] (setting [5]).

For the molecule `CNC(=O)/C(=N/OC)c1cccc(C)c1CO/N=C(\C)c1cc(F)ccc1F` [Ex. 131], in assay [1] (16 ppm), the “PHAKPA … (%), P2 at 16 ppm” value turned out to be 0%. In assay [1] (setting [3]), the “% PHAKPA … P2 at 4 ppm” value amounted to 0%. The “% PHAKPA … P2 at 16 ppm” value in assay [1] (setting [4]) turned out to be 0%. Moreover, the “PHAKPA … (%), P6 at 16 ppm” value in assay [2] (setting [5]) is 0%. In addition, the “% PHAKPA … P6 at 4 ppm” value in assay [2] (setting [6]) is 2%. Further, in assay [2] (setting [7]), the “% PHAKPA … P6 at 16 ppm” value was determined as 0%.

With `CO/C=C(/C(=O)OC)c1cccc(C)c1CO/N=C(\C)c1cccc(C(F)(F)F)c1` [Ex. 231], the “% PHAKPA … P2 at 4 ppm” value in assay [1] (setting [8]) was 0%. Also, in assay [1] (setting [9]), the “% PHAKPA … P2 at 16 ppm” value was determined as 0%. Moreover, in assay [1] (Table C2, protective, inoculation 2 days after spraying, 4 ppm, % diseased leaf area on soybean, untreated 100), the “PHAKPA (F129L) Disease level (%) P2 at 4 ppm” value came out at 0%. Besides, the “% PHAKPA … P6 at 4 ppm” value in assay [2] (setting [10]) is on record as 2%. In assay [2] (setting [11]), the “% PHAKPA … P6 at 16 ppm” value is given as 0%. Also, the “PHAKPA (F129L) Disease level (%) P6 at 4 ppm” value in assay [2] (Table C2, protective, inoculation six days after spraying, 4 ppm, % diseased leaf area on soybean, untreated 99) is given as 2%.

Turning to `CO/C=C(/C(=O)OC)c1cccc(C)c1CO/N=C(\C)c1ccccc1C(F)(F)F` [Ex. 244], the “% PHAKPA … P2 at 4 ppm” value in assay [1] (setting [8]) is listed as 14%. Moreover, the “% PHAKPA … P2 at 16 ppm” value in assay [1] (setting [9]) came out at 0%. Moreover, the “PHAKPA … (%), P2 at 16 ppm” value in assay [1] (16 ppm) worked out at 0%. In assay [2] (setting [10]), the “% PHAKPA … P6 at 4 ppm” value came to 15%. The “% PHAKPA … P6 at 16 ppm” value in assay [2] (setting [11]) was 2%. In assay [2] (setting [5]), the “PHAKPA … (%), P6 at 16 ppm” value stood at 2%.

For `CO/N=C(/C(=O)OC)c1cccc(C)c1CO/N=C(\C)c1c(F)ccc(C(F)(F)F)c1F` [compound 156], the “% PHAKPA … P2 at 4 ppm” value in assay [1] (setting [3]) was determined as 27%. In assay [1] (setting [4]), the “% PHAKPA … P2 at 16 ppm” value was 0%. Further, the “% PHAKPA … P6 at 4 ppm” value in assay [2] (setting [6]) is reported as 47%. Moreover, in assay [2] (setting [7]), the “% PHAKPA … P6 at 16 ppm” value worked out at 3%.

On to `CNC(=O)/C(=N/OC)c1cccc(C)c1CO/N=C(\C)c1ccc(OC)cc1OC(F)(F)F` [compound 337], for which, in assay [1] (setting [8]), the “% PHAKPA … P2 at 4 ppm” value stood at 9%. The “% PHAKPA … P2 at 16 ppm” value in assay [1] (setting [9]) is listed as 0%. For the same molecule, the “% PHAKPA … P6 at 4 ppm” value in assay [2] (setting [10]) turned out to be 13%. Moreover, the “% PHAKPA … P6 at 16 ppm” value in assay [2] (setting [11]) was 1%.

With `CNC(=O)/C(=N/OC)c1cccc(C)c1CO/N=C(\C)c1c(F)cc(Br)cc1OC(F)(F)F` [compound 355], the “% PHAKPA … P2 at 4 ppm” value in assay [1] (setting [8]) amounted to 34%. Besides, the “% PHAKPA … P2 at 16 ppm” value in assay [1] (setting [9]) amounted to 7%. The “% PHAKPA … P6 at 4 ppm” value in assay [2] (setting [10]) is recorded as 48%. Also, the “% PHAKPA … P6 at 16 ppm” value in assay [2] (setting [11]) came to 4%.

`COC=C(C(=O)OC)c1cccc(C)c1CON=C(C)c1cc(F)c(F)cc1CC(F)(F)F` [compound 405]: the “% PHAKPA … P2 at 4 ppm” value in assay [1] (setting [8]) is recorded as 97%. Moreover, the “% PHAKPA … P2 at 16 ppm” value in assay [1] (setting [9]) came to 27%. The “% PHAKPA … P6 at 4 ppm” value in assay [2] (setting [10]) is on record as 70%. Besides, the “% PHAKPA … P6 at 16 ppm” value in assay [2] (setting [11]) is given as 27%.

In the case of `CNC(=O)/C(=N/OC)c1cccc(C)c1CO/N=C(\C)c1ccc(-c2ccccc2)cc1C(F)(F)F` [compound 413], in assay [1] (setting [8]), the “% PHAKPA … P2 at 4 ppm” value is listed as 40%. Moreover, the “% PHAKPA … P2 at 16 ppm” value in assay [1] (setting [9]) was 15%. Further, the “% PHAKPA … P6 at 4 ppm” value in assay [2] (setting [10]) was 33%. Moreover, the “% PHAKPA … P6 at 16 ppm” value in assay [2] (setting [11]) amounted to 15%.

Consider `CO/N=C(/C(=O)OC)c1cccc(C)c1CO/N=C(\C)c1ccc(-c2ccccc2)cc1C(F)(F)F` [compound 414], for which the “% PHAKPA … P2 at 4 ppm” value in assay [1] (setting [8]) was 53%. Also, in assay [1] (setting [9]), the “% PHAKPA … P2 at 16 ppm” value was determined as 9%. Also, the “% PHAKPA … P6 at 4 ppm” value in assay [2] (setting [10]) turned out to be 53%. Also, the “% PHAKPA … P6 at 16 ppm” value in assay [2] (setting [11]) is 15%.

As for `CON=C(C)c1ccc(C(C)=NOCc2c(C)cccc2C(=NOC)C(=O)OC)c(OC(F)(F)F)c1` [compound 418], the “% PHAKPA … P2 at 4 ppm” value in assay [1] (setting [8]) is reported as 70%. Also, in assay [1] (setting [9]), the “% PHAKPA … P2 at 16 ppm” value turned out to be 33%. For the same molecule, the “% PHAKPA … P6 at 4 ppm” value in assay [2] (setting [10]) turned out to be 73%. Moreover, the “% PHAKPA … P6 at 16 ppm” value in assay [2] (setting [11]) is 57%.

In the case of `CO/N=C(/C(=O)OC)c1cccc(C)c1CO/N=C(\C)c1ccc(-c2ccc(F)cc2)cc1C(F)(F)F` [compound 425], the “% PHAKPA … P2 at 4 ppm” value in assay [1] (setting [8]) came to 27%. Moreover, in assay [1] (setting [9]), the “% PHAKPA … P2 at 16 ppm” value was found to be 28%. Also, the “% PHAKPA … P6 at 4 ppm” value in assay [2] (setting [10]) was found to be 53%. Moreover, the “% PHAKPA … P6 at 16 ppm” value in assay [2] (setting [11]) came to 40%.

`CNC(=O)/C(=N/OC)c1cccc(C)c1CO/N=C(\C)c1ccc(-c2ccc(F)cc2)cc1C(F)(F)F` [compound 426]: the “% PHAKPA … P2 at 4 ppm” value in assay [1] (setting [8]) is 7%. For the same molecule, the “% PHAKPA … P2 at 16 ppm” value in assay [1] (setting [9]) is listed as 1%. Besides, the “% PHAKPA … P6 at 4 ppm” value in assay [2] (setting [10]) is recorded as 27%. Besides, the “% PHAKPA … P6 at 16 ppm” value in assay [2] (setting [11]) was found to be 10%.

As to `CNC(=O)/C(=N/OC)c1cccc(C)c1CO/N=C(\C)c1ccc(Cl)c(F)c1OC(F)(F)F` [compound 449], in assay [1] (setting [8]), the “% PHAKPA … P2 at 4 ppm” value is recorded as 33%. Also, in assay [1] (setting [9]), the “% PHAKPA … P2 at 16 ppm” value was found to be 10%. The “% PHAKPA … P6 at 4 ppm” value in assay [2] (setting [10]) was 57%. Further, the “% PHAKPA … P6 at 16 ppm” value in assay [2] (setting [11]) came to 9%.

Turning to `COC=C(C(=O)OC)c1cccc(C)c1CON=C(C)c1ccc(F)c(F)c1OC(F)(F)F` [compound 450], the “% PHAKPA … P2 at 4 ppm” value in assay [1] (setting [8]) came to 3%. Further, the “% PHAKPA … P2 at 16 ppm” value in assay [1] (setting [9]) is given as 1%. In addition, in assay [2] (setting [10]), the “% PHAKPA … P6 at 4 ppm” value stood at 4%. In assay [2] (setting [11]), the “% PHAKPA … P6 at 16 ppm” value was 1%.

For the molecule `CO/C=C(/C(=O)OC)c1cccc(C)c1CO/N=C(\C)c1ccc(Cl)c(F)c1OC(F)(F)F` [compound 452], the “% PHAKPA … P2 at 4 ppm” value in assay [1] (setting [8]) worked out at 60%. In assay [1] (setting [9]), the “% PHAKPA … P2 at 16 ppm” value amounted to 6%. Also, in assay [2] (setting [10]), the “% PHAKPA … P6 at 4 ppm” value amounted to 70%. The “% PHAKPA … P6 at 16 ppm” value in assay [2] (setting [11]) is 14%.

As for `CNC(=O)/C(=N/OC)c1cccc(OC)c1CO/N=C(\C)c1cccc(C(F)(F)F)c1` [compound 461], in assay [1] (setting [8]), the “% PHAKPA … P2 at 4 ppm” value was found to be 26%. Also, the “% PHAKPA … P2 at 16 ppm” value in assay [1] (setting [9]) is listed as 2%. Also, the “% PHAKPA … P6 at 4 ppm” value in assay [2] (setting [10]) came to 52%. For the same molecule, in assay [2] (setting [11]), the “% PHAKPA … P6 at 16 ppm” value is 6%.

As for `CO/C=C(/C(=O)OC)c1cccc(C)c1CO/N=C(\C)c1ccccc1OC(F)(F)F` [compound 462], the “% PHAKPA … P2 at 4 ppm” value in assay [1] (setting [8]) was determined as 37%. Also, the “% PHAKPA … P2 at 16 ppm” value in assay [1] (setting [9]) was determined as 6%. Also, in assay [2] (setting [10]), the “% PHAKPA … P6 at 4 ppm” value is 55%. In addition, the “% PHAKPA … P6 at 16 ppm” value in assay [2] (setting [11]) was 10%.
